This note sets out measurements from patent US20260207720A1, “COMPOSITIONS AND METHODS FOR TREATING FUNGAL INFECTIONS” (MUCPharm Pty Ltd, priority 2022, published 2026).

Values after ≈ are worked out from the molar mass of the structure shown.

For orientation: MIC means the smallest concentration in the dilution series that meets the test's criterion for growth inhibition.

The subject of the assay is Mucormycete group (Rhizopus microspores, Fusarium solani cx, Rhizopus arrhizus and Candida krusei QC). Put plainly: Susceptibility assay of bromelain and acetylcysteine alone or together (Example 1). The format is cell-based. As to conditions: in isolation, R. microsporus, read-out: MIC required to inhibit Mucormycete growth. As for the experimental part:
Unless otherwise described, fungal cultures were grown on potato dextrose agar plates at 35° C. until mature (appearance of conidia) and used to prepare suspensions in sterile water. Suspensions were diluted in RPMI 1:60. These suspensions were then added in equal volume to solutions containing the candidate species described above and incubated at 35° C. for 24 hr. Plates were then analysed for fungal growth inhibition and MIC values determined. […] Initial tests were conducted on one strain of Rhizopus microsporus, one strain of Rhizopus arrhizus and one strain of Candida krusei QC, all sourced clinically.

On to `CC(=O)N[C@@H](CS)C(=O)O` [Acetylcysteine, N-acetylcysteine], for which the MIC came out at 10 µg/mL (≈ 61.3 µM).
